# Several values for one entry are separate records, joined by “and”; a condition that tells them apart may be missing. Identical values can stand only once.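 All cell lines were grown in 96-well plates and treated with compound for 48 hours. GI50 = concentration required for 50% inhibition of growth. Definition used: TGI = concentration required for complete inhibition of growth.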
# Assays:
# Assay in all cases: NCI-60 cell line screen, 48 h
# [1] = tested on: LOX IMVI melanoma
# [2] = tested on: SF-295 CNS
# [3] = tested on: OVCAR-4 ovarian
# [4] = tested on: HCT-116 colon
# [5] = tested on: SK-OV-3 ovarian
# [6] = tested on: SK-MEL-2 melanoma
# [7] = tested on: NCI-H522 lung
# [8] = tested on: ACHN renal
# [9] = tested on: SR leukemia
# [10] = tested on: HCT-15 colon
SMILES,GI50 [1] [µM],GI50 [2] [µM],TGI [2] [µM],GI50 [3] [µM],TGI [3],GI50 [4] [µM],TGI [4],TGI [5] [µM],GI50 [6] [µM],TGI [6] [µM],GI50 [7] [µM],TGI [7],GI50 [8] [µM],TGI [8],GI50 [9] [µM],GI50 [10] [µM],TGI [10],TGI [1] [µM],TGI [9] [µM],GI50 [5] [µM]
O=C1/C(=C\c2ccc([N+](=O)[O-])cc2)CS(=O)(=O)C/C1=C/c1ccc([N+](=O)[O-])cc1,0.0309,0.563,6.42,0.207,0.612 µM and 1.37 µM,0.0821,0.227 µM and 1.28 µM,15.5,0.366,3.17,0.168,0.398 µM and 1.29 µM,0.19,0.405 µM and 2.19 µM,0.908,0.058,0.258 µM and 0.638 µM,,,
NC(Cn1ccc(=O)c(O)c1)C(=O)O (configuration not stated),,,> 100,,> 100 µM,,> 100 µM,> 100,,> 100,,> 100 µM,,> 100 µM,,,> 100 µM,> 100,> 100,
O=C(O)/C(=C/c1ccccc1[N+](=O)[O-])c1cccs1,,,> 100,,> 100 µM,,> 100 µM,> 100,,> 100,,> 100 µM,,> 100 µM,,,> 100 µM,> 100,> 100,
Cc1cc(NS(=O)(=O)c2ccc(NC(=O)COc3ccc(-c4cc5ccccc5[nH]4)cc3)cc2)no1,1.86,1.94,4.91,1.53,3.98 µM,1.84,5.01 µM,3.55,1.86,3.76,1.79,4.09 µM,2.44,6.9 µM,1.67,2.32,7.35 µM,5.18,> 100,1.85
[CH3][Sn]([CH3])([CH3])[O]C(=O)C(O)c1ccccc1 (configuration not stated),2.85,3.67,16.9,7.51,> 100 µM,3.58,31.6 µM,47.2,2.06,4.51,2.6,13.1 µM,4.27,> 100 µM,20.7,3.57,19.1 µM,8.53,> 100,10.1
COc1ccc(-c2nnc(Nc3nc(O)c(C4=c5cc(OC(F)(F)F)ccc5=NC4=O)s3)o2)cc1,16.3,6.12,> 100,46.3,> 100 µM,12.5,25.4 µM,44,20.3,39.3,32.4,> 100 µM,22.3,> 100 µM,9,20.4,80.4 µM,56.1,34.2,17.4
Cc1ccc(-c2c3c(N)nc(-c4ccncc4)nc3nc3c2c(C)nn3-c2ccccc2)cc1,2.33,> 37.5,> 37.5,7.44,33.3 µM,2.95,11.1 µM,10.2,13.7,> 37.5,> 37.5,> 37.5 µM,> 37.5,> 37.5 µM,7.09,13.6,> 37.5 µM,14.5,23.8,3.41
Cc1ccc2c(n1)C(=O)C(Cl)=C(Nc1ccc(N3CCN(C)CC3)cc1)C2=O,1.78,18,32.3,1.5,2.87 µM,1.67,3.19 µM,25.8,1.87,3.56,1.86,4.78 µM,1.75,3.13 µM,2.78,1.84,3.93 µM,3.22,9.06,13
O=C1c2cccc3cccc(c23)C(=O)N1CC#Cc1ccc2c3c(cccc13)C(=O)N(CCN1CCNCC1)C2=O,1.94,17.5,33.8,1.93,3.82 µM,2.12,4.79 µM,62.6,18.5,42,2.03,5.04 µM,2.75,7.96 µM,1.98,14.9,> 100 µM,3.87,4.78,25.7
CC1(C)C(=O)CCC(=O)C(C)(C)C2=CC=C(O2)C(C)(C)C(=O)CCC(=O)C(C)(C)C2=CC=C1O2,,,> 100,,> 100 µM,,> 100 µM,> 100,,> 100,,> 100 µM,,> 100 µM,,,> 100 µM,> 100,> 100,
COc1cc(-c2ccc(Nc3ccccc3C(=O)O)c(OC)c2)ccc1Nc1ccccc1C(=O)O,,,> 100,,> 100 µM,,23.6 µM,> 100,,58.6,,66.6 µM,,> 94.6 µM,,,51.6 µM,30.9,> 84.6,
O=c1c(-c2ccc3c(c2)OCO3)coc2c(CO)c(O)ccc12,1.28,2.2,6.18,3.39,18.1 µM,2,4.94 µM,6.39,2.25,5.87,4.55,20.8 µM,1.82,5.34 µM,2.65,2.35,6.46 µM,3.41,> 100,2.41
O=S(=O)(CC(O)C(Cl)(Cl)Cl)NNc1ccccc1 (configuration not stated),,,> 100,,> 100 µM,,> 100 µM,> 100,,> 100,,> 100 µM,,> 100 µM,,,> 100 µM,> 100,> 100,
CCN1CCN(CC(=O)Nc2nc3ccc(NCc4ccc(C)cc4)cc3s2)CC1,0.94,2.4,9.06,6.24,16.2 µM,1.53,5.32 µM,12.4,5.53,12.8,4.45,11.5 µM,6.06,12.3 µM,1.8,1.04,2.47 µM,1.86,8.37,4.12
O=C(O)CN(CC(=O)O)c1ccccc1,,,> 100,,> 100 µM,,> 100 µM,> 100,,> 100,,> 100 µM,,> 100 µM,,,> 100 µM,> 100,> 100,
CCCCCCCCn1ccc2cc(NC(=O)Cn3cc(CN4CCC(C)CC4)nn3)ccc21,1.64,1.86,3.5,2.07,4.85 µM,1.57,2.93 µM,3.7,1.85,3.53,1.73,3.48 µM,1.63,2.99 µM,1.9,1.61,3.15 µM,3.05,5.24,1.9
O=S1CCN(Cc2ccc(-c3ccc4ncnc(Nc5ccc(OCc6ccccc6)c(F)c5)c4c3)o2)CC1,6.39,7.63,> 22.1,5.75,> 25 µM,9.96,> 25 µM,0.226,5.46,12.2,0.984,> 20.1 µM,0.757,> 25 µM,9.29,8.13,> 25 µM,> 23.4,> 25,0.0713

# From PubChem BioAssay (NCI)
